# Biological target: T1, human p38 kinase alpha (Homo sapiens, UniProt Q16539)
# T1 construct: GST (N, cleaved yes); made in house; host or cells: E. coli DH10B
# Assay: p38 kinase in vitro assay, phosphorylation of biotinylated PHAS-I with 32P-ATP
# Type: biochemical
# Conditions: @ 1.0 uM
# T1 sequence (Q16539 whole entry): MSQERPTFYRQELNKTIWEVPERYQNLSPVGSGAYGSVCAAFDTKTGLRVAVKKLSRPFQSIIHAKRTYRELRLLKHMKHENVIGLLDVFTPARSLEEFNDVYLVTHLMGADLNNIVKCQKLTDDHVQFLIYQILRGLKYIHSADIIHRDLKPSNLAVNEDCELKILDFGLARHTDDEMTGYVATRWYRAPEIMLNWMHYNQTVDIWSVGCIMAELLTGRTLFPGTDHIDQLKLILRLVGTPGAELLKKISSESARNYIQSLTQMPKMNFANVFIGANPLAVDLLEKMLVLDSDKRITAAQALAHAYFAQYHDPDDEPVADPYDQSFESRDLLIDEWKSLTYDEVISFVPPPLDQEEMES
row,Compound,P38 alpha kinase % inhib @ conc. (uM) [% @]
1,CC(=O)OC(C)(C)C(=O)NCCCc1[nH]nc(-c2ccc(F)cc2)c1-c1ccncc1 [Example B-1163],74.0
2,O=C(NCCCc1[nH]nc(-c2ccc(F)cc2)c1-c1ccncc1)c1ccccn1 [Example B-1184],69.0
3,CCN(CC)C(=O)NCCc1[nH]nc(-c2ccc(F)cc2)c1-c1ccncc1 [Example B-1048],67.0
4,O=S(=O)(NCCCc1[nH]nc(-c2ccc(F)cc2)c1-c1ccncc1)c1ccc(F)cc1 [Example B-1190],78.0
5,O=C(NCCCc1[nH]nc(-c2ccc(F)cc2)c1-c1ccncc1)c1cccc(Br)c1 [Example B-1167],70.0
6,CC(C)S(=O)(=O)NCCCc1[nH]nc(-c2ccc(F)cc2)c1-c1ccncc1 [Example B-1192],84.0

# Same assay, conditions: @ 1.0 uM; read-out: P38 alpha kinase % inhib @ conc.
row,Compound,inhibition at 1 µM [%]
1,N#Cc1cccc(C(=O)NCc2[nH]nc(-c3ccc(F)cc3)c2-c2ccncc2)c1 [Example B-0023],90

# Same assay, conditions: @ 10.0 uM
Compound,"P38 alpha kinase IC50, uM or % inhib @ conc. (uM): % inhib [% @]",P38 alpha kinase % inhib @ conc. [% @]
Cc1cccc(NC(=O)Cn2nc(-c3ccc(F)cc3)c(-c3ccncc3)c2C)c1 [Example B-2424],86.0,–
Cc1c(-c2ccncc2)c(-c2ccc(F)cc2)nn1CC(=O)Nc1cc(C(F)(F)F)cc(C(F)(F)F)c1 [Example B-2425],79.0,–
Cc1c(-c2ccncc2)c(-c2ccc(F)cc2)nn1CC(=O)NC1CCC1 [Example B-2330],–,81.0
Cc1c(-c2ccncc2)c(-c2ccc(F)cc2)nn1CC(=O)Nc1cc([N+](=O)[O-])cc([N+](=O)[O-])c1 [Example B-2430],90.0,–
Cc1c(-c2ccncc2)c(-c2ccc(F)cc2)nn1CC(=O)Nc1ccccc1C(C)C [Example B-2433],94.0,–
Cc1c(-c2ccncc2)c(-c2ccc(F)cc2)nn1CC(=O)Nc1ccccc1Cc1ccccc1 [Example B-2434],92.0,–
Cc1c(-c2ccncc2)c(-c2ccc(F)cc2)nn1CC(=O)N(C)CC(N)=O [Example B-2400],60.0,–

# Same assay, conditions: @ 100.0 uM
Compound,P38 alpha kinase % inhib @ conc. [% @],"P38 alpha kinase IC50, uM or % inhib @ conc. (uM): % inhib [% @]"
CC(=O)N1CCN(C(=O)Cn2nc(-c3ccc(F)cc3)c(-c3ccncc3)c2C)CC1 [Example B-2380],81,–
CCN(CC)CCN(CCN(CC)CC)C(=O)Cn1nc(-c2ccc(F)cc2)c(-c2ccncc2)c1C [Example B-2407],–,47

# Same assay, conditions: Table 8; 1% DMSO; read-out: p38α Kinase Assay IC50
row,Compound,IC50 [nM]
1,"CS(=O)(=O)N1CCN(c2n[nH]c(-c3ccc(Cl)cc3)c2-c2ccncc2)CC1 [Example A-320, 1-[5-(4-chlorophenyl)-4-(4-pyridinyl)-1H-pyrazol-3-yl]-4-(methylsulfonyl)piperazine, monohydrate]",270

# Same assay, conditions: in vitro P38-alpha kinase inhibition; read-out: P38 alpha kinase IC50
row,Compound,IC50 [nM]
1,O=C(NCCc1[nH]nc(-c2ccc(F)cc2)c1-c1ccncc1)c1cccc2ccccc12 [Example B-1128],2550
2,CC(NS(=O)(=O)c1ccc(F)c(Cl)c1)c1[nH]nc(-c2ccc(F)cc2)c1-c1ccncc1 (stereo not drawn) [Example B-0643],69
3,CC(NS(=O)(=O)c1ccc(F)cc1F)c1[nH]nc(-c2ccc(F)cc2)c1-c1ccncc1 (stereo not drawn) [Example B-0567],140
4,C=CCNC(=O)NC(Cc1ccccc1)c1[nH]nc(-c2ccc(F)cc2)c1-c1ccncc1 (stereo not drawn) [Example B-0734],920
5,O=C(Nc1ccc(F)cc1)NC(Cc1ccccc1)c1[nH]nc(-c2ccc(F)cc2)c1-c1ccncc1 (stereo not drawn) [Example B-0773],14000
6,CC(NS(=O)(=O)c1ccc(-c2ccccn2)s1)c1[nH]nc(-c2ccc(F)cc2)c1-c1ccncc1 (stereo not drawn) [Example B-0660],88
7,O=C(NCc1ccc(S(=O)(=O)NCCc2[nH]nc(-c3ccc(F)cc3)c2-c2ccncc2)s1)c1ccccc1 [Example B-1108],220
8,CC(NS(=O)(=O)c1ccc(C#N)cc1)c1[nH]nc(-c2ccc(F)cc2)c1-c1ccncc1 (stereo not drawn) [Example B-0656],7
9,COc1ccc(NC(=O)NC(Cc2ccccc2)c2[nH]nc(-c3ccc(F)cc3)c2-c2ccncc2)c(OC)c1 (stereo not drawn) [Example B-0789],33000
10,CC(NC(=O)C1CC1)c1[nH]nc(-c2ccc(F)cc2)c1-c1ccncc1 (stereo not drawn) [Example B-0538],1130
11,O=C(NCCc1[nH]nc(-c2ccc(F)cc2)c1-c1ccncc1)c1c(F)cccc1F [Example B-1151],320
12,Cc1c(Cl)cccc1S(=O)(=O)NC(C)c1[nH]nc(-c2ccc(F)cc2)c1-c1ccncc1 (stereo not drawn) [Example B-0624],85
13,CC(NC(=O)c1c(F)ccc(F)c1F)c1[nH]nc(-c2ccc(F)cc2)c1-c1ccncc1 (stereo not drawn) [Example B-0680],420
14,O=C(Nc1cccc(F)c1)NC(Cc1ccccc1)c1[nH]nc(-c2ccc(F)cc2)c1-c1ccncc1 (stereo not drawn) [Example B-0785],23000
15,COc1ccc(S(=O)(=O)NC(Cc2ccccc2)c2[nH]nc(-c3ccc(F)cc3)c2-c2ccncc2)cc1 (stereo not drawn) [Example B-0764],670
16,CC(NC(=O)C1CCC1)c1[nH]nc(-c2ccc(F)cc2)c1-c1ccncc1 (stereo not drawn) [Example B-0537],3440
17,O=S(=O)(NCCc1[nH]nc(-c2ccc(F)cc2)c1-c1ccncc1)c1cccc(Cl)c1 [Example B-1090],< 100
18,O=S(=O)(NCCc1[nH]nc(-c2ccc(F)cc2)c1-c1ccncc1)c1ccc(-c2ccccn2)s1 [Example B-1111],190
19,Cc1ccc(C(=O)NCCc2[nH]nc(-c3ccc(F)cc3)c2-c2ccncc2)cc1 [Example B-1122],1840
20,CC(NS(=O)(=O)c1cccc2cnccc12)c1[nH]nc(-c2ccc(F)cc2)c1-c1ccncc1 (stereo not drawn) [Example B-0667],830
21,O=S(=O)(NCCc1[nH]nc(-c2ccc(F)cc2)c1-c1ccncc1)c1ccccc1Cl [Example B-1091],< 100
22,O=C(NC(Cc1ccccc1)c1[nH]nc(-c2ccc(F)cc2)c1-c1ccncc1)N1CCCC1 (stereo not drawn) [Example B-0771],500
23,CC(NS(=O)(=O)c1ccc(Cl)c(Cl)c1)c1[nH]nc(-c2ccc(F)cc2)c1-c1ccncc1 (stereo not drawn) [Example B-0642],490

# Same assay, conditions: in vitro P38-alpha kinase; read-out: P38 alpha kinase IC50
row,Compound,IC50 [nM]
1,O=S(=O)(NCCCc1[nH]nc(-c2ccc(F)cc2)c1-c1ccncc1)c1cccc2ccccc12 [Example B-1246],270
2,O=C(NCCCc1[nH]nc(-c2ccc(F)cc2)c1-c1ccncc1)c1cc2ccccc2s1 [Example B-1325],270
3,C=CCOC(=O)N1CCC(c2[nH]nc(-c3ccc(F)cc3)c2-c2ccncc2)CC1 [Example B-1362],3
4,COc1ccc(CNC(=O)Cn2nc(-c3ccc(F)cc3)c(-c3ccncc3)c2C)c(OC)c1 [Example B-2278],800
5,CC(C)C(=O)N1CCC(c2[nH]nc(-c3ccc(F)cc3)c2-c2ccncc2)CC1 [Example B-1361],30
6,Cc1ccc(S(C)(=O)=O)cc1S(=O)(=O)NCCCc1[nH]nc(-c2ccc(F)cc2)c1-c1ccncc1 [Example B-1296],38
7,O=C(NCCCc1[nH]nc(-c2ccc(F)cc2)c1-c1ccncc1)c1c(F)cccc1C(F)(F)F [Example B-1338],180
8,Cc1c(-c2ccncc2)c(-c2ccc(F)cc2)nn1CC(=O)NCCc1ccc(Cl)c(Cl)c1 [Example B-2303],11
9,CCCOC(=O)N1CCC(c2[nH]nc(-c3ccc(F)cc3)c2-c2ccncc2)CC1 [Example B-1423],1580
10,O=S(=O)(NCCCc1[nH]nc(-c2ccc(F)cc2)c1-c1ccncc1)c1ccc(Cl)cc1Cl [Example B-1253],150
11,O=C(c1cc(F)cc(C(F)(F)F)c1)N1CCC(c2[nH]nc(-c3ccc(F)cc3)c2-c2ccncc2)CC1 [Example B-1409],< 100
12,O=C(NCCCc1[nH]nc(-c2ccc(F)cc2)c1-c1ccncc1)NCCN1CCCCC1 [Example B-1313],35
13,CCC(=O)N1CCC(c2[nH]nc(-c3ccc(F)cc3)c2-c2ccncc2)CC1 [Example B-1420],< 100
14,O=C(c1ccc(F)c(F)c1)N1CCC(c2[nH]nc(-c3ccc(F)cc3)c2-c2ccncc2)CC1 [Example B-1414],25
15,CN(C)S(=O)(=O)NCCCc1[nH]nc(-c2ccc(F)cc2)c1-c1ccncc1 [Example B-1292],10
16,O=C(c1ccncc1)N1CCC(c2[nH]nc(-c3ccc(F)cc3)c2-c2ccncc2)CC1 [Example B-1373],16
17,CC(C)c1ccc(S(=O)(=O)NCCCc2[nH]nc(-c3ccc(F)cc3)c2-c2ccncc2)cc1 [Example B-1251],410
18,CC(=O)Nc1nc(C)c(S(=O)(=O)NCCCc2[nH]nc(-c3ccc(F)cc3)c2-c2ccncc2)s1 [Example B-1235],40
19,O=C(c1cc(F)cc(F)c1)N1CCC(c2[nH]nc(-c3ccc(F)cc3)c2-c2ccncc2)CC1 [Example B-1415],1410
20,O=C(NCCCc1[nH]nc(-c2ccc(F)cc2)c1-c1ccncc1)c1cccs1 [Example B-1357],180
21,O=C(c1ccc(Cl)cc1Cl)N1CCC(c2[nH]nc(-c3ccc(F)cc3)c2-c2ccncc2)CC1 [Example B-1417],69
22,O=S(=O)(c1ccc(Cl)s1)N1CCC(c2[nH]nc(-c3ccc(F)cc3)c2-c2ccncc2)CC1 [Example B-1438],2010
23,COc1ccc2[nH]cc(CCNC(=O)Cn3nc(-c4ccc(F)cc4)c(-c4ccncc4)c3C)c2c1 [Example B-2296],17300
24,CNC(=O)N1CCC(c2[nH]nc(-c3ccc(F)cc3)c2-c2ccncc2)CC1 [Example B-1378],20
25,Cc1c(-c2ccncc2)c(-c2ccc(F)cc2)nn1CC(=O)NCCN(C)C [Example B-2294],1680
26,O=C(NCCCc1[nH]nc(-c2ccc(F)cc2)c1-c1ccncc1)c1cc(F)ccc1F [Example B-1349],37
27,Cc1c(-c2ccncc2)c(-c2ccc(F)cc2)nn1CC(=O)NCC(=O)c1ccccc1 [Example B-2317],1000
28,N#Cc1cccc(C(=O)N2CCC(c3[nH]nc(-c4ccc(F)cc4)c3-c3ccncc3)CC2)c1 [Example B-1396],1550
29,Cc1c(-c2ccncc2)c(-c2ccc(F)cc2)nn1CC(=O)NCCCSC1CCCCC1 [Example B-2306],5880

# Reference: US6979686B1, “Substituted pyrazoles as p38 kinase inhibitors” (Pharmacia Corporation, priority 2001, dated 2005)
